From publication PMC7582770, “Synthesis of “All-Cis” Trihydroxypiperidines from a Carbohydrate-Derived Ketone: Hints for the Design of New β-Gal and GCase Inhibitors” (Molecules, 2020)

Tests used:
Experiment in all cases: Commercial glycosidase screening
[1] = target: T1, β-galactosidase EC 3.2.1.23 (Escherichia coli, UniProt P00722); format: biochemical; conditions: read-out: % Inhibition at 0.1 mM, β-galactosidase Escherichia coli
T1 construct: purchased Sigma-Aldrich or Megazyme Ltd
Source text: (§1) A panel of 12 commercial glycosidases (α-L-fucosidase EC 3.2.1.51 from Homo sapiens, α-galactosidase EC 3.2.1.22 from coffee beans, β-galactosidases EC 3.2.1.23 from Escherichia coli and Aspergillus oryzae, α-glucosidases EC 3.2.1.20 from yeast and rice, amyloglucosidase EC 3.2.1.3 from Aspergillus niger, β-glucosidase EC 3.2.1.21 from almonds, α-mannosidase EC 3.2.1.24 from Jack beans, β-mannosidase EC 3.2.1.25 from snail, β-N-acetylglucosaminidases EC 3.2.1.52 from Jack beans and bovine kidney) purchased from Sigma-Aldrich (St. Louis, MO, USA) or Megazyme Ltd. (Bray, Co. Wicklow, Ireland) was screened.
(§2) The percentage (%) of inhibition towards the corresponding glycosidase was determined in quadruplicate in the presence of 100 μM of the inhibitor on the well. Each enzymatic assay (final volume 0.12 mL) contains 0.01–0.5 units/mL of the enzyme (with previous calibration) and 4.2 mM aqueous solution of the appropriate p-nitrophenyl glycopyranoside (substrate) buffered to the optimal pH of the enzyme. Enzyme and inhibitor were preincubated for 5 min at room temperature, and the reaction started by addition of the substrate. After 20 min of incubation at 37 °C, the reaction was stopped by the addition of 0.1 mL of sodium borate solution (pH 9.8). The p-nitrophenolate formed was measured by visible absorption spectroscopy at 405 nm (Asys Expert 96 spectrophotometer, Biochrom Ltd., Cambridge, England). Under these conditions, the p-nitrophenolate released led to optical densities linear with both reaction time and concentration of the enzyme (for more details, see the Supplementary Materials). The IC50 value (concentration of inhibitor required for 50% inhibition of enzyme activity) was determined from plots of % inhibition vs. different inhibitor concentrations. Each point of the graph is the average of four measures. The standard deviation for each point has been also represented in the graph.

[2] = target: T2, α-mannosidase EC 3.2.1.24 (Canavalia ensiformis, UniProt C0HJB3); format: biochemical; conditions: 0.1 mM inhibitor; read-out: % Inhibition at 0.1 mM, α-mannosidase Jack beans
T2 construct: purchased Sigma-Aldrich or Megazyme Ltd
T2 sequence (C0HJB3 1-981): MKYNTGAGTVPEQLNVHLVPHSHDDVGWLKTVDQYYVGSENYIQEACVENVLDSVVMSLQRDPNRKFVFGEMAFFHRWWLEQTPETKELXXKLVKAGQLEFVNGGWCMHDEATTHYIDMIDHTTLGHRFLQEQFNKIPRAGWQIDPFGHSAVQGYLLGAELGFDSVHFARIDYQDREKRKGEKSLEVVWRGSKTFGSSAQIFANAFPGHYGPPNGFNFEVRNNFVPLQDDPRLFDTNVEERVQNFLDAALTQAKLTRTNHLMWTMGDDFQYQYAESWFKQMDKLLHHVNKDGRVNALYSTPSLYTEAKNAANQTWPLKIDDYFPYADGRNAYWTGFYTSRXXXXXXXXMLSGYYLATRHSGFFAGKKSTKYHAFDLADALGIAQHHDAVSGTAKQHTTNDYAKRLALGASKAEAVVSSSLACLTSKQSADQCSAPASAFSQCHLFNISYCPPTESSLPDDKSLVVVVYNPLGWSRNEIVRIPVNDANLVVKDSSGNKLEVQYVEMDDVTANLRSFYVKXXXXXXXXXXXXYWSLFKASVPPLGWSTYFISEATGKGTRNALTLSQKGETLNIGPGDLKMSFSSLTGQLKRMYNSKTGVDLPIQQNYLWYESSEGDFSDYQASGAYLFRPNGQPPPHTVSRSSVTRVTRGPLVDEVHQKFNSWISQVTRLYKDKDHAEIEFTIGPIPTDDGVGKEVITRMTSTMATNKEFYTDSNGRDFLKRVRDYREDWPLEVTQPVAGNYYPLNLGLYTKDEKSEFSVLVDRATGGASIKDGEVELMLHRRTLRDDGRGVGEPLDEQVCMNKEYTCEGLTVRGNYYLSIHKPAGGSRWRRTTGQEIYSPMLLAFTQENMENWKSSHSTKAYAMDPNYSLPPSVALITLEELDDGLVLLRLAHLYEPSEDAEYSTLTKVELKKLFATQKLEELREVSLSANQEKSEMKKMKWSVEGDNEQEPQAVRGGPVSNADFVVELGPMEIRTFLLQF
Source text: as §1, §2

[3] = target: T3, β-galactosidase EC 3.2.1.23 (Aspergillus oryzae, UniProt Q2UCU3); format: biochemical; conditions: 0.1 mM inhibitor
T3 construct: purchased Sigma-Aldrich or Megazyme Ltd
T3 sequence (Q2UCU3 19-1005): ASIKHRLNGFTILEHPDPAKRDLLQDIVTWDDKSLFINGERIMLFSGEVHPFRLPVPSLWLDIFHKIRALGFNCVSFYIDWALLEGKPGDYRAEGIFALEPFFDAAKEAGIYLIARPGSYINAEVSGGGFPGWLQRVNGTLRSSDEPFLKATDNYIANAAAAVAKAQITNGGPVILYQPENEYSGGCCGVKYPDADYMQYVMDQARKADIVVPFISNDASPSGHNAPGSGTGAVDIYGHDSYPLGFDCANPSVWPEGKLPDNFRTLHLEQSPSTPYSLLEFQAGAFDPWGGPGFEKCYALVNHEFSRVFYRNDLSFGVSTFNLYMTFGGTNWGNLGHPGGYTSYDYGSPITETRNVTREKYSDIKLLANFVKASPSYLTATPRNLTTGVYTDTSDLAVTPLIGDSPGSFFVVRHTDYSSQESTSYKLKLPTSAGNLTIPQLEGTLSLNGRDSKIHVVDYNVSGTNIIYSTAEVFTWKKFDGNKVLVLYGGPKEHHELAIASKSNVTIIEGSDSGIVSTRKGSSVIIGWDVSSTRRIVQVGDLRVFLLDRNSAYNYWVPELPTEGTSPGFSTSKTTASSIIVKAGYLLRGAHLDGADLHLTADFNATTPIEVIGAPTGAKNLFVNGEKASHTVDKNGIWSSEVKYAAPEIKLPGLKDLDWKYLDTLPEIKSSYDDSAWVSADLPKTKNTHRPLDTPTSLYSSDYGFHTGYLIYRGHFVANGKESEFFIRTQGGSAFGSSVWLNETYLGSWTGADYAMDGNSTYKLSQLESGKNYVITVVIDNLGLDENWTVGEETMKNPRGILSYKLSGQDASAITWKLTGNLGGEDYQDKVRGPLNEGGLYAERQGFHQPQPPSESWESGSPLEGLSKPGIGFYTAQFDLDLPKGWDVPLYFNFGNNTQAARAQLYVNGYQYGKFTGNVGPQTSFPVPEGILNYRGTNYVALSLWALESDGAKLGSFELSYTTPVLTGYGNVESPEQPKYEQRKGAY
Source text: as §1, §2

[4] = target: T4, α-galactosidase EC 3.2.1.22 (Coffea arabica, UniProt Q42656); format: biochemical; conditions: 0.1 mM inhibitor; read-out: % Inhibition at 0.1 mM, α-galactosidase coffee beans
T4 construct: purchased Sigma-Aldrich or Megazyme Ltd
T4 sequence (Q42656 16-378): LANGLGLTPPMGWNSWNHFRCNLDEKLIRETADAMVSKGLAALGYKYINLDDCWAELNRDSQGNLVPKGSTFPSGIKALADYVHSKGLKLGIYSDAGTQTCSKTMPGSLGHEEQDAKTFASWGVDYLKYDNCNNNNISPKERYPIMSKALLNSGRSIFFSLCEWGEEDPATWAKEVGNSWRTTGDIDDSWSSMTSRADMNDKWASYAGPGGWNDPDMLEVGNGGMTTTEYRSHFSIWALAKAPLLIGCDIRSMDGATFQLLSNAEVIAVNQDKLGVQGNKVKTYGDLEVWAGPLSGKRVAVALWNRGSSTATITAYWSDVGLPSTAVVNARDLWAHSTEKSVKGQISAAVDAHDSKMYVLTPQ
Source text: as §1, §2

[5] = target: T5, α-L-fucosidase EC 3.2.1.51 (Homo sapiens, UniProt P04066); format: biochemical; conditions: 0.1 mM inhibitor
T5 construct: purchased Sigma-Aldrich or Megazyme Ltd
T5 sequence (P04066 32-466): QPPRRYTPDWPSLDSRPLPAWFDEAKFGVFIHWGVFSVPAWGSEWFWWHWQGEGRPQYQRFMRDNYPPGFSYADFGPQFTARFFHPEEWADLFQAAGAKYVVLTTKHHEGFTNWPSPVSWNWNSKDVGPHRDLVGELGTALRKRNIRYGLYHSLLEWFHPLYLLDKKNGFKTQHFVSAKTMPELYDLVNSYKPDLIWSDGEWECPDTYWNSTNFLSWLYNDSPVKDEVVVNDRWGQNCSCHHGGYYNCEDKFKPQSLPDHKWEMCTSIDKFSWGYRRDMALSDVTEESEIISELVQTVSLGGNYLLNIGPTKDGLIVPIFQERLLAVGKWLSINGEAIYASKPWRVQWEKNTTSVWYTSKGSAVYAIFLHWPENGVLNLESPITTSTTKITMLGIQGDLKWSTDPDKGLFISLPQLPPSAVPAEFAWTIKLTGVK
Source text: as §1, §2

[6] = target: T6, amyloglucosidase EC 3.2.1.3 (Aspergillus niger, UniProt P69328); format: biochemical; conditions: 0.1 mM inhibitor
T6 construct: purchased Sigma-Aldrich or Megazyme Ltd
T6 sequence (P69328 25-640): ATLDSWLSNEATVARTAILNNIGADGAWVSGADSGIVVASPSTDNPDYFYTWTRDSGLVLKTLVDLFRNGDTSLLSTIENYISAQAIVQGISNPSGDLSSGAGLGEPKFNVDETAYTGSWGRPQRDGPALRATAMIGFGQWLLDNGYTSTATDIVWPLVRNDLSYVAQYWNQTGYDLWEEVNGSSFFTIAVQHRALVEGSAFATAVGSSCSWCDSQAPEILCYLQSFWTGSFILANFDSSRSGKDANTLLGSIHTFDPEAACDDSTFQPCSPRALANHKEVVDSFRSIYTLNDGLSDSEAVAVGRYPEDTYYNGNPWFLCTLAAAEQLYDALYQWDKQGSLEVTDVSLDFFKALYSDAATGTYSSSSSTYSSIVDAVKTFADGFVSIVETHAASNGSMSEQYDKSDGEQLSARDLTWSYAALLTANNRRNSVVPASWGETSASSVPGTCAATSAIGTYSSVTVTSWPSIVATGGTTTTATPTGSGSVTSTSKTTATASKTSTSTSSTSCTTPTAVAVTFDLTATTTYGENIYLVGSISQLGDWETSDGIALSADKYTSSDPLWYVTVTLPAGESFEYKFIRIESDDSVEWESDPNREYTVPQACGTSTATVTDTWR
Source text: as §1, §2

[7] = system: β-N-acetylglucosaminidase EC 3.2.1.52; format: biochemical, Jack beans; conditions: 0.1 mM inhibitor
Source text: as §1, §2

T1 sequence (P00722 2-1024): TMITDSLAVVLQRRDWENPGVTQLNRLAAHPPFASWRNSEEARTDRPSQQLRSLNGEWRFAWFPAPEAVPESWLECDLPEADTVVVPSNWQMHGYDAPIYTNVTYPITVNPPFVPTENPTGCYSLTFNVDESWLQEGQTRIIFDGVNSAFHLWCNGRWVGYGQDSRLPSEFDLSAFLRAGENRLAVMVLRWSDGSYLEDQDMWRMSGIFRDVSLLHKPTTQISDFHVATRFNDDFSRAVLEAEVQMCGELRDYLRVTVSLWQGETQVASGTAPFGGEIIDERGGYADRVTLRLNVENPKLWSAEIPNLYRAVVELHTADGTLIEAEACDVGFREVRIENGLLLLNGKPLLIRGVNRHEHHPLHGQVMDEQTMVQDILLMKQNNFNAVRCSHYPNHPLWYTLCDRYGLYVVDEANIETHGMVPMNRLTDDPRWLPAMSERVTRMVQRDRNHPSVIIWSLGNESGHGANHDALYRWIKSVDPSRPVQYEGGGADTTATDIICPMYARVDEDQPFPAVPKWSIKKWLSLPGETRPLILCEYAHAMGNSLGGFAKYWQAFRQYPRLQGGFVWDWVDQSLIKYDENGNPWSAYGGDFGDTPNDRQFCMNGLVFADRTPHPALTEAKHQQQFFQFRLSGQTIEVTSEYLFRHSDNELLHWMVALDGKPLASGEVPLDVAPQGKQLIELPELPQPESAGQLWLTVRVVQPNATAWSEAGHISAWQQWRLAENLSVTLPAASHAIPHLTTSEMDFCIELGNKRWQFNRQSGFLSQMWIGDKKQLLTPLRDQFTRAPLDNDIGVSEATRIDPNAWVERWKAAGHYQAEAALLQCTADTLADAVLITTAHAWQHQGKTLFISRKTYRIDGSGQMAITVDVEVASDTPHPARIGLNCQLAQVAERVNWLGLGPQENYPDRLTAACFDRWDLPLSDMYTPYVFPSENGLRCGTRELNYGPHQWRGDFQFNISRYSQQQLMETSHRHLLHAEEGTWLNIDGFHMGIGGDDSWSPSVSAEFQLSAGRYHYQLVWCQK

SMILES | inhibition at 100 µM [1] [%] | inhibition at 100 µM [2] [%] | inhibition at 100 µM [3] [%] | inhibition at 100 µM [4] [%] | inhibition at 100 µM [5] [%] | inhibition at 100 µM [6] [%] | % Inhibition at 0.1 mM, β-N-acetylglucosaminidase Jack beans [7]
CCCCCCCCCCCCN[C@H]1CNC[C@@H](O)[C@H]1O [compound 10, (3R, 4S, 5S)-3,4-Dihydroxy-5-(Dodecylamino) Piperidine] | 0 | 0 | 0 | 0 | 0 | 0 | - (no inhibition detected)
CCCCCCCC[C@]1(O)CNC[C@@H](O)[C@H]1O [compound 12, (3S, 4R, 5R)-3,4,5-Trihydroxy-3-Octyl-Piperidine] | 0 | 0 | 0 | 0 | 0 | 0 | - (no inhibition detected)
CCCCCCCCCO[C@@H]1CNC[C@@H](O)[C@H]1O [compound 21, (3R, 4R, 5R)-4,5-Dihydroxy-3-(Nonyloxy) Piperidine] | 0 | 0 | 0 | 0 | 0 | 0 | - (no inhibition detected)
